{"source": "paper PMC7698965", "about": "(Cancers, 2020)", "key": {"F98-cell": {"tested_on": "F98-cell", "set-up": "method as in earlier work", "details": "post-neutron irradiation (2 Gy), cited from earlier work"}, "U87 MG": {"tested_on": "U87 MG", "details": "24 h incubation, SRB; cited from earlier work"}, "C6": {"tested_on": "C6", "details": "cited from earlier work; for IC50: 24 h incubation, SRB"}, "HT-29": {"tested_on": "HT-29", "details": "24 h incubation, SRB; cited from earlier work"}, "S. typhimurium TA98": {"tested_on": "S. typhimurium TA98", "assay": "Ames test", "details": "TA98, positive control NPD 20.0 mg/plate"}, "S. typhimurium TA100": {"tested_on": "S. typhimurium TA100", "assay": "Ames test", "details": "TA100, positive control NPD 2.0 mg/plate"}, "[1]": {"tested_on": "U87 MG cells co-cultured with neonatal murine astrocytes", "assay": "Confocal microscopy of treated co-cultures (PKH26, DAPI)", "format": "cell-based, human", "details": "IC50,U87 MG doses, 24 h"}, "U87 MG cells": {"tested_on": "U87 MG cells", "assay": "Cell cycle/DNA content by flow cytometry", "format": "cell-based, human", "details": "24 h at IC50 (1 8.0 μM, Sun 32 μM)"}, "astrocytes": {"tested_on": "astrocytes", "assay": "Cell cycle/DNA content by flow cytometry", "format": "cell-based, mouse", "details": "24 h at IC50 (1 8.0 μM, Sun 32 μM)"}, "AMPK": {"tested_on": "AMPK", "details": "read-out: IC50,Sun,AMPK; cited from earlier work"}, "RSK1": {"tested_on": "RSK1", "details": "read-out: IC50,Sun,RSK1; cited from earlier work"}, "[2]": {"tested_on": "U87 MG human glioblastoma", "assay": "In vivo anti-glioblastoma activity"}, "[3]": {"details": "1 at 1 mg/kg/day, Tmz at 4 mg/kg/day, ip three times a week"}}, "note": "Like-named read-outs stand apart in the source and are kept apart here."}
{"compound": "10B-boronophenylalanine fructose [Compound 10BPA-fr]", "values": [{"measurement": "Surviving Fraction", "setting": "F98-cell; 0.1 ppm equivalents of 10B", "value": "89 ± 11", "unit": "%"}, {"measurement": "Surviving Fraction", "setting": "F98-cell; 1.0 ppm equivalents of 10B", "value": "71 ± 11", "unit": "%"}, {"measurement": "Surviving Fraction", "setting": "F98-cell; 10.0 ppm equivalents of 10B", "value": "92 ± 6", "unit": "%"}]}
{"compound": "C#Cc1cccc(Nc2ncnc3cc(OCCOC)c(OCCOC)cc23)c1", "note": "[Erl, erlotinib]", "values": [{"measurement": "IC50", "setting": "U87 MG", "value": "63 ± 5", "unit": "µM"}, {"measurement": "IC50", "setting": "C6", "value": "> 100", "unit": "µM"}, {"measurement": "IC50", "setting": "HT-29", "value": "> 100", "unit": "µM"}]}
{"compound": "CS(=O)(=O)CCNCc1ccc(-c2ccc3ncnc(Nc4ccc(OCc5cccc(F)c5)c(Cl)c4)c3c2)o1", "note": "[Lap, lapatinib]", "values": [{"measurement": "IC50", "setting": "U87 MG", "value": "54 ± 14", "unit": "µM"}, {"measurement": "IC50", "setting": "C6", "value": "> 100", "unit": "µM"}, {"measurement": "percent of cells survival at 100 μM", "setting": "C6; C6, 100 μM", "value": "89 ± 5", "unit": "%"}, {"measurement": "percentages of cell survival at 100 μM", "setting": "C6; C6, 100 μM", "value": "89 ± 5", "unit": "%"}, {"measurement": "IC50", "setting": "HT-29", "value": "6.25 ± 0.05", "unit": "µM"}]}
{"compound": "Nc1ccc([N+](=O)[O-])cc1N", "note": "[Positive control, 4-Nitro-o-phenylendiamine]", "values": [{"measurement": "Number of revertants", "setting": "S. typhimurium TA98", "value": "295 ± 11"}, {"measurement": "Number of revertants", "setting": "S. typhimurium TA100", "value": "704 ± 6"}]}
{"compound": "CCN(CC)CCNC(=O)c1c(C)[nH]c(/C=C2\\C(=O)Nc3ccc(F)cc32)c1C", "note": "[Sun, sunitinib]", "values": [{"measurement": "DAPI nuclei staining", "setting": "[1]", "value": "chromatin condensation"}, {"measurement": "U87 MG population (PKH26 dye) compared to the control", "setting": "[1]", "value": "decrease of U87 MG population"}, {"measurement": "effect on cell cycle distribution", "setting": "U87 MG cells", "value": "increase in the percentage of both astrocytes and U87 MG cells in the sub-G1 phase"}, {"measurement": "effect on cell cycle distribution", "setting": "astrocytes", "value": "increase in the percentage of both astrocytes and U87 MG cells in the sub-G1 phase"}, {"measurement": "IC50", "setting": "U87 MG", "value": "32 ± 4", "unit": "µM"}, {"measurement": "IC50", "setting": "C6", "value": "36 ± 10", "unit": "µM"}, {"measurement": "IC50", "setting": "HT-29", "value": "6.25 ± 0.04", "unit": "µM"}, {"measurement": "IC50", "setting": "AMPK", "value": 0.32, "unit": "µM"}, {"measurement": "IC50", "setting": "RSK1", "value": "[…]"}]}
{"compound": "Cn1nnc2c(C(N)=O)ncn2c1=O", "note": "[Tmz, temozolomide]", "values": [{"measurement": "mouse survival time", "setting": "[2]; [3]", "value": 27, "unit": "days"}, {"measurement": "time to mouse deaths", "setting": "[2]; [3]", "value": 23, "unit": "days"}, {"measurement": "median survival", "setting": "[2]; Tmz 4 mg/kg/day ip three times a week", "value": 23, "unit": "days"}]}
